The values that follow come from ChEMBL document CHEMBL2074090, “Characterization of the transport properties of cloned rat multidrug resistance-associated protein 3 (MRP3)” (J Biol Chem, 1999).

Data set [1] concerns the target T1, MRP3 (ABCC3, ATP-binding cassette sub-family C member 3) (Rattus norvegicus, UniProt O88563). In words: TP_TRANSPORTER: inhibition of E217betaG uptake (E217betaG: 0.1 uM, alpha-naphthyl beta-D-glucuronide: 200 uM) in membrane vesicle from Mrp3-expressing LLC-PK1 cells. Format: functional, cell membranes. Details: scale not given: the % may be the effect or the level left. Conditions: pig, membrane vesicles from Mrp3-expressing LLC-PK1 cells, probe E217betaG; read-out: Activity.

Data set [2] deals with T1, MRP3 (ABCC3, ATP-binding cassette sub-family C member 3). In words: TP_TRANSPORTER: inhibition of E217betaG uptake (E217betaG: 0.1 uM, MTX: 1000 uM) in membrane vesicles from MRP3-expressing HeLa cells. Conditions: human, probe E217betaG, read-out: Activity. Details: scale not given: the % may be the effect or the level left. Format: functional, cell membranes, Membrane vesicle.

Data set [3] concerns the target ATP-binding cassette sub-family C member 3 (Rattus norvegicus, UniProt O88563). In words: (§1) TP_TRANSPORTER: uptake in membrane vesicle from Mrp3-expressing LLC-PK1 cells. It counts as functional, cell membranes. The following applies: pig.
Data set [4] addresses T1, MRP3 (ABCC3, ATP-binding cassette sub-family C member 3). In words: TP_TRANSPORTER: inhibition of E217betaG uptake (E217betaG: 0.1 uM, MTX: 1000 uM) in membrane vesicles from MRP3-expressing LLC-PK1 cells. Format: functional, cell membranes, Membrane vesicle. Conditions: pig, probe E217betaG, read-out: Activity. Details: scale not given: the % may be the effect or the level left.

Data set [5] has the same target. In words: TP_TRANSPORTER: inhibition of E217betaG uptake (E217betaG: 0.1 uM, DNP-SG: 500 uM) in membrane vesicles from MRP3-expressing LLC-PK1 cells. Format: functional, cell membranes, Membrane vesicle. More on the design: scale not given: the % may be the effect or the level left. The following applies: pig, probe E217betaG, read-out: Activity.
For data set [6] the target is unchanged. As to the kind of experiment: TP_TRANSPORTER: inhibition of E217betaG uptake (E217betaG: 0.1 uM, E3040 glucuronide: 50 uM) in membrane vesicles from MRP3-expressing HeLa cells. Format: functional, cell membranes, Membrane vesicle. More on the design: scale not given: the % may be the effect or the level left. The following applies: human, probe E217betaG, read-out: Activity.

Data set [7] shares this target. In words: TP_TRANSPORTER: inhibition of E217betaG uptake (E217betaG: 0.1 uM, 4-methylumbeliferone glucuronide: 500 uM) in membrane vesicle from Mrp3-expressing LLC-PK1 cells. The following applies: pig, membrane vesicles from Mrp3-expressing LLC-PK1 cells, probe E217betaG; read-out: Activity. It counts as functional, cell membranes. More on the design: scale not given: the % may be the effect or the level left.

The target is the same in data set [8]. As to the kind of experiment: TP_TRANSPORTER: inhibition of E217betaG uptake (E217betaG: 0.1 uM, E1S: 500 uM) in membrane vesicle from Mrp3-expressing LLC-PK1 cells. Format: functional, cell membranes. More on the design: scale not given: the % may be the effect or the level left. The following applies: pig, membrane vesicles from Mrp3-expressing LLC-PK1 cells, probe E217betaG; read-out: Activity.

The target is the same in data set [9]. As to the kind of experiment: TP_TRANSPORTER: inhibition of E217betaG uptake (E217betaG: 0.1 uM, LTC4: 2.5 uM) in membrane vesicle from Mrp3-expressing LLC-PK1 cells. Conditions: pig, membrane vesicles from Mrp3-expressing LLC-PK1 cells, probe E217betaG; read-out: Activity. Format: functional, cell membranes. Details: scale not given: the % may be the effect or the level left.

Substrate in data set [10]: C[C@]12CC[C@@H]3c4ccc(O)cc4CC[C@H]3[C@@H]1CC[C@@H]2O[C@@H]1O[C@H](C(=O)O)[C@@H](O)[C@H](O)[C@H]1O
The data set is described as §1. It counts as functional, cell membranes.

With `O=C(O)[C@H]1O[C@@H](Oc2cccc3ccccc23)[C@H](O)[C@@H](O)[C@@H]1O`, in [1], the activity at 200 µM worked out at 23.6%.

For `CN(Cc1cnc2nc(N)nc(N)c2n1)c1ccc(C(=O)N[C@@H](CCC(=O)O)C(=O)O)cc1` [METHOTREXATE], the activity at 1000 µM in [2] worked out at 18.5%; in data set [4], 10.7%. In addition, in [3], the Activity result was “substrate [+]”. Turning to `N[C@@H](CCC(=O)N[C@H](CSc1ccc([N+](=O)[O-])cc1[N+](=O)[O-])C(=O)NCC(=O)O)C(=O)O`, the activity at 500 µM in data set [5] was 14.4%. On to `CNc1nc2c(Cc3cccnc3)c(C)c(O[C@@H]3O[C@H](C(=O)O)[C@@H](O)[C@H](O)[C@H]3O)c(C)c2s1` [E3040 GLUCURONIDE], for which, in [3], the Activity entry was “substrate [+]”. Besides, the activity at 50 µM in [6] was determined as 11.1%. On to `O=C(O)[C@H]1O[C@@H](OCc2cc(=O)oc3cc(O)ccc23)[C@H](O)[C@@H](O)[C@@H]1O`, for which, in [7], the activity at 500 µM came to 14.1%. As for `C[C@]12CC[C@@H]3c4ccc(OS(=O)(=O)O)cc4CC[C@H]3[C@@H]1CCC2=O` [ESTRONE SULFURIC ACID], the activity at 500 µM in data set [8] came to 33.3%. With `CCCCC/C=C\C\C=C/C=C/C=C/[C@@H](SC[C@@H](NC(=O)CC[C@H](N)C(=O)O)C(=O)NCC(=O)O)[C@@H](O)CCCC(=O)O` [LEUKOTRIEN C4], the activity at 2.5 µM in data set [9] was found to be 57%.

B1: ATP-binding cassette sub-family C member 3 (Rattus norvegicus) (protein)
chain: MDRLCGSGELGSKFWDSNLTVYTNTPDLTPCFQNSLLAWVPCIYLWAALPCYLFYLRHHRLGYIVLSCLSRLKTALGVLLWCISWVDLFYSFHGLVHGSSPAPVFFITPLLVGITMLLATLLIQYERLRGVRSSGVLIIFWLLCVICAIIPFRSKILLALAEGKILDPFRFTTFYIYFALVLCAFILSCFQEKPPLFSPENLDTNPCPEASAGFFSRLSFWWFTKLAILGYRRPLEDSDLWSLSEEDCSHKVVQRLLEAWQKQQTQASGPQTAALEPKIAGEDEVLLKARPKTKKPSFLRALVRTFTSSLLMGACFKLIQDLSPSSTHSCSASSSGLFRPHGPYWWGFLLAGLMFVSSTMQTLILHQHYHCIFVMALRIRTAIIGVIYRKALTITNSVKREYTVGEMVNLMSVDAQRFMDVSPFINLLWSAPLQVILAIYFLWQILGPSALAGVAVIVLLIPLNGAVSMKMKTYQVQQMKFKDSRIKLMSEILNGIKVLKLYAWEPTFLEQVEGIRQGELQLLRKGAYLQAISTFIWVCTPFMVTLITLGVYVCVDKNNVLDAEKAFVSLSLFNILKIPLNLLPQLISGMTQTSVSLKRIQDFLNQDELDPQCVERKTISPGRAITIHNGTFSWSKDLPPTLHSINIQIPKGALVAVVGPVGCGKSSLVSALLGEMEKLEGAVSVKGSVAYVPQQAWIQNCTLQENVLFGQPMNPKRYQQALETCALLADLDVLPGGDQTEIGEKGINLSGGQRQRVSLARAVYSDANIFLLDDPLSAVDSHVAKHIFDQVIGPEGVLAGKTRVLVTHGISFLPQTDFIIVLADGQITEMGHYSELLQHDGSFANFLRNYAPDENQEANEGVLQHANEEVLLLEDTLSTHTDLTDTEPAIYEVRKQFMREMSSLSSEGEGQNRPVLKRYTSSLEKEVPATQTKETGALIKEEIAETGNVKLSVYWDYAKSVGLCTTLFICLLYAGQNAVAIGANVWLSAWTNDVEEHGQQNNTSVRLGVYATLGILQGLLVMLSAFTMVVGAIQAARLLHTALLHNQIRAPQSFFDTTPSGRILNRFSKDIYVIHEVLAPTILMLFNSFYTSISTIVVIVASTPLFCVVVLPLAVFYGFVQRFYVATSRQLKRLESVSRSPIFSHFSETVTGTSVIRAYGRVQDFKVLSDAKVDSNQKTTYPYIASNRWLGVHVEFVGNCVVLFSALFAVIGRNSLNPGLVGLSVSYALQVTLSLNWMIRTLSDLESNIIAVERVKEYSKTETEAPWVLESNRAPEGWPRSGVVEFRNYSVRYRPGLELVLKNLTLHVQGGEKVGIVGRTGAGKSSMTLCLFRILEAAEGEIFIDGLNVAHIGLHDLRSQLTIIPQDPILFSGTLRMNLDPFGRYSDEDIWRTLELSHLSAFVSSQPTGLDFQCSEGGDNLSVGQRQLVCLARALLRKSRVLVLDEATAAIDLETDDLIQGTIRTQFEDCTVLTIAHRLNTIMDYNRVLVLDKGVVAEFDSPVNLIAAGGIFYGMAKDAGLA
In the case of B1, the Km (as a rule, the substrate concentration at which the rate is half of its maximum) in [10] worked out at 110 µM.
